Laboratory results as given in patent US7994121B2, “Stable analogs of peptide and polypeptide therapeutics” (Trustees of Tufts College, priority 2003, dated 2011).
Entries after “also recorded” stand apart in the source; their conditions may differ. Read-outs that look alike come from different tables or passages of the source. Square brackets hold non-standard residues; d marks the D form. Ends that are not written are not given here. Peptide text beside a SMILES is read from it. Tle = CC(C)(C)[C@H](N)C(=O)O

Tests used:
[1] = biological target: human DPP IV (Homo sapiens, UniProt P27487); assay: Cleavage/degradation by DPP IV, HPLC/MS; type: in vitro ADME; settings: for resistance to cleavage by DPP IV: in comparison to native GLP-1; for degradation by human DPP IV: two hours of treatment with human DPP IV, versus untreated peptide
human DPP IV, sequence (P27487 whole entry): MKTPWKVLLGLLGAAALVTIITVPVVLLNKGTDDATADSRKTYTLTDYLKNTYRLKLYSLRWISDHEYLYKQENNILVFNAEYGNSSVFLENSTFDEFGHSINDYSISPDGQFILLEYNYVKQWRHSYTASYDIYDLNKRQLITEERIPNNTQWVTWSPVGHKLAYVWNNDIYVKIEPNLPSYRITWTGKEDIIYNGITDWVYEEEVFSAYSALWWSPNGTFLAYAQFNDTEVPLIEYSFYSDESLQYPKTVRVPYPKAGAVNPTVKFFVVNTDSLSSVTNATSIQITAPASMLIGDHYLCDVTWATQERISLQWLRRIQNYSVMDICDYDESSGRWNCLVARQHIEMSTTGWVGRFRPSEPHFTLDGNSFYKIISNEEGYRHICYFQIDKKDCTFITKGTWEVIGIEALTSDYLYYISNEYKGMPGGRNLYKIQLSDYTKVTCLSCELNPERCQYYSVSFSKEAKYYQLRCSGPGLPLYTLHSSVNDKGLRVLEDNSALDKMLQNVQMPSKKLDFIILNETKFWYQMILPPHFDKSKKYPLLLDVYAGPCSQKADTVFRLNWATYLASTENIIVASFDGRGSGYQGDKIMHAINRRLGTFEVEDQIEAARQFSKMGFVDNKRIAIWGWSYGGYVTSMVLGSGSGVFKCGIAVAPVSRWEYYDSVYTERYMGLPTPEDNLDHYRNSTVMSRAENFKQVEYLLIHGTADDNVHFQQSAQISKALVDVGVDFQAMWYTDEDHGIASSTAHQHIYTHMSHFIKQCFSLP
Method: However, it is most desirable to produce peptide analogs that are not only resistant to proteolysis, but also retain all or much of the biological activity of the native peptide. Accordingly, we conducted a series of experiments to ascertain whether these GLP-1 analogs which display robust resistance to degradation by DPP IV also retain biological activities of native GLP-1
TLE-modified GLP-1 analog was treated with human DPP IV for two hours, and degradation of the analog over time was compared to that of analog in the absence of DPP IV.

[2] = biological target: thrombin (Homo sapiens, UniProt P00734); assay: Thrombin digestion of model peptide, C18 HPLC/MS; type: in vitro ADME; settings: 4 hours at 23° C., 10 nM thrombin, 0.1 M HEPES pH 8
Method: Briefly, the peptide […] (SEQ ID NO: 31) is a model substrate for thrombin. Thrombin cleaves after the arginine residue. Accordingly, the serine residue of this model peptide is the P′1 positions. WALAPR^↓SFA
To compare digestion of the model peptide analog by thrombin with that of the native model peptide, peptides were digested for 4 hours at 23° C. with 10 nM thrombin in 0.1 M HEPES pH 8, 0.14 M NaCl, 5 mM CaCl2, 0.5% PEG6000. Following digestion, C18 reverse phase HPLC of the digests was compared to the undigested peptides, and the mass spectra of the major peaks are shown for each chromatogram in FIG. 7.

[3] = cited from earlier work

GLP-1 (BM): GLP1(7-37) analog wherein the P′1 glutamic acid is substituted by 3-butyl-methyl-glycine (HAXGTFTSDVSSYLEGQAAKEFIAWLVKGRG; non-natural residues)
resistance to cleavage by DPP IV [1]: resistant to cleavage by DPP IV

WALAPRSFA [unmodified peptide]
cleavage by thrombin [2]: efficiently cleaved by thrombin

HAE GTFTSDVSSY LEGQAAKEFI AWLVKGRG [GLP-1 (7-37)]
degradation by human DPP IV [1]: time dependent degradation; also recorded: time dependent loss of peptide

CC[C@H](C)[C@H](NC(=O)[C@H](Cc1ccccc1)NC(=O)[C@H](CCC(=O)O)NC(=O)[C@H](CCCCN)NC(=O)[C@H](C)NC(=O)[C@H](C)NC(=O)[C@H](CCC(N)=O)NC(=O)CNC(=O)[C@H](CCC(=O)O)NC(=O)[C@H](CC(C)C)NC(=O)[C@H](Cc1ccc(O)cc1)NC(=O)[C@H](CO)NC(=O)[C@H](CO)NC(=O)[C@@H](NC(=O)[C@H](CC(=O)O)NC(=O)[C@H](CO)NC(=O)[C@@H](NC(=O)[C@H](Cc1ccccc1)NC(=O)[C@@H](NC(=O)CNC(=O)[C@@H](NC(=O)[C@H](C)NC(=O)[C@@H](N)Cc1c[nH]cn1)C(C)(C)C)[C@@H](C)O)[C@@H](C)O)C(C)C)C(=O)N[C@@H](C)C(=O)N[C@@H](Cc1c[nH]c2ccccc12)C(=O)N[C@@H](CC(C)C)C(=O)N[C@H](C(=O)N[C@@H](CCCCN)C(=O)NCC(=O)N[C@@H](CCCNC(=N)N)C(=O)NCC(=O)O)C(C)C [TLE-modified GLP-1]
degradation by human DPP IV [1]: resistant to degradation by DPP IV

CC[C@H](C)[C@H](NC(=O)[C@H](Cc1ccccc1)NC(=O)[C@H](CCC(=O)O)NC(=O)[C@H](CCCCN)NC(=O)[C@H](C)NC(=O)[C@H](C)NC(=O)[C@H](CCC(N)=O)NC(=O)CNC(=O)[C@H](CCC(=O)O)NC(=O)[C@H](CC(C)C)NC(=O)[C@H](Cc1ccc(O)cc1)NC(=O)[C@H](CO)NC(=O)[C@H](CO)NC(=O)[C@@H](NC(=O)[C@H](CC(=O)O)NC(=O)[C@H](CO)NC(=O)[C@@H](NC(=O)[C@H](Cc1ccccc1)NC(=O)[C@@H](NC(=O)CNC(=O)C(NC(=O)[C@H](C)NC(=O)[C@@H](N)Cc1c[nH]cn1)C(C)(C)C(=O)O)[C@@H](C)O)[C@@H](C)O)C(C)C)C(=O)N[C@@H](C)C(=O)N[C@@H](Cc1c[nH]c2ccccc12)C(=O)N[C@@H](CC(C)C)C(=O)N[C@H](C(=O)N[C@@H](CCCCN)C(=O)NCC(=O)N[C@@H](CCCNC(=N)N)C(=O)NCC(=O)O)C(C)C (stereo partly drawn) [GLP-1 (3DMA)]
resistance to cleavage by DPP IV [1]: resistant to cleavage by DPP IV

GLP-1: exogenous GLP-1 given subcutaneously or intravenously to subjects (Deacon et al.); metabolite co-elutes with GLP-I(9-36) amide
degradation of infused GLP-1 ([3]; intravenous infusion): extensively degraded
metabolite share of the increase in plasma immunoreactivity (CO2H-terminal RIA) ([3]; thirty minutes after subcutaneous GLP-1, diabetic patients (n is 8)): 88.5+1.9%
metabolite share of the increase in plasma immunoreactivity (CO2H-terminal RIA) ([3]; thirty minutes after subcutaneous GLP-1, healthy subjects (n=8)): 78.4+3.2%

CC(C)C[C@H](NC(=O)[C@H](C)NC(=O)[C@@H](N)Cc1c[nH]c2ccccc12)C(=O)N[C@@H](C)C(=O)N1CCC[C@H]1C(=O)N[C@@H](CCCNC(=N)N)C(=O)N[C@H](C(=O)N[C@@H](Cc1ccccc1)C(=O)N[C@@H](C)C(=O)O)C(C)(C)C [TLE substituted peptide analog, WALAPRXFA] (H-WALAPR[Tle]FA-OH)
cleavage by thrombin [2]: not cleaved by thrombin
